Data reported in patent US20260306460A1, “COMPOSITION FOR REMOVING AND INHIBITING SENESCENT CELLS, AND USES THEREOF” (LIFECEUTIX CO., LTD., priority 2023, published 2026).

Legend:
[1] = system: naturally aged C57BL6J mice; format: in vivo, mouse; settings: mouse, in vivo
naturally aged mice = experiment: Anti-aging evaluation in naturally aged mice, Example 31, Table 55; format: in vivo, mouse; settings: for Femur Ctsk mRNA / Kidney Agtr1a mRNA / Liver IL6 mRNA / Liver MMP3 mRNA / Liver p16 mRNA / Open Field Test Time in Center: untreated = 100%; for Heart Sur2a mRNA / Joint Col2a1 mRNA / Skin Col1a1 mRNA / Skin SDF1 mRNA: untreated = 1.0; for Muscle Mass: untreated 0.64 g; for Fat Mass: untreated 0.82 g; for Cataract incidence: untreated 83%;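 as to all read-outs here: Vehicle-dosed control mice received solution alone at matching volume, values compare test-compound-treated aged mice against that control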
[2] = system: bleomycin-induced pulmonary fibrosis mice; experiment: Bleomycin-induced pulmonary fibrosis mice, Example 31, Table 56; format: in vivo, mouse; settings: untreated = 100%
Procedure: (§1) The control group was administered only the solution in the same volume. After the end of drug administration, the method described in each example below was performed. Liver, kidney, skin, knee joint, heart, and femur tissues were collected from mice in which natural aging was induced in the same manner as in Examples 7-2 and 7-6 of WO2023-085787 A1. Lung tissues were collected from mice in which pulmonary fibrosis was induced using the same method as in Example 24-1. Liver tissues were collected from mice in which hepatic fibrosis was induced using the same method as in Example 26, and total RNA was extracted. qRT-PCR was performed and analyzed using the synthesized cDNA. […] The mRNA amounts of p16, MMP3, and IL6 after natural aging was induced were calculated as 100% and compared with the mRNA amounts of p16, MMP3, and IL6 after treatment with the test compound. In addition, an open field test for the analysis of aging-related frailty, agtr1a mRNA analysis for kidney damage and disease evaluation, col1a1 and SDF1 mRNA analysis for skin aging evaluation such as wrinkles/loss of elasticity/hyperpigmentation, col2a1 mRNA analysis for evaluating joint aging such as osteoarthritis, sur2a mRNA analysis for evaluating cardiac aging such as decreased cardiac load resistance, ctsk mRNA analysis for evaluating bone diseases due to aging such as osteoporosis, muscle tissue weight for analyzing sarcopenia, fat tissue weight for analyzing lipoatrophy, and cataract incidence analysis were performed in mice. For cataract incidence analysis, the drug was administered twice a week under the conditions specified above, and biweekly examinations were conducted until death.
The table below quantitatively presents the evaluation results for each item in mice with bleomycin-induced pulmonary fibrosis, untreated and treated with the test compound.

[3] = system: carbon tetrachloride-induced liver fibrosis mice; experiment: Carbon tetrachloride-induced liver fibrosis mice, Example 31, Table 57; format: in vivo, mouse; settings: CCl4-induced liver fibrosis mice, untreated = 100%
Procedure: as §1

senescent cells = experiment: Viability of senescent cells (CellTiter-Glo), Example 17, Table 13; settings: Homo sapiens, read-out: Survival (%)
Procedure: Cells induced to undergo senescence by doxorubicin treatment were treated with test compound at designated concentrations and measured using the CellTiter-Glo Luminescent Cell Viability Assay (Promega).

senescent A549 cells = experiment: Viability of senescent A549 cells (CellTiter-Glo), Example 18, Table 15; settings: Homo sapiens, A549, read-out: Survival (%)
Procedure: Senescence-induced cancer cells treated with doxorubicin were treated with the test compound at designated concentrations, and cell viability was measured using the CellTiter-Glo Luminescent Cell Viability Assay (Promega).

Row | Structure (SMILES) | wound/damage healing improvement [1] | Femur Ctsk mRNA (naturally aged mice) | Heart Sur2a mRNA (naturally aged mice) | Joint Col2a1 mRNA (naturally aged mice) | Kidney Agtr1a mRNA (naturally aged mice) | Liver IL6 mRNA (naturally aged mice) | Liver MMP3 mRNA (naturally aged mice) | Liver p16 mRNA (naturally aged mice) | Open Field Test Time in Center (naturally aged mice) | Skin Col1a1 mRNA (naturally aged mice) | Skin SDF1 mRNA (naturally aged mice) | Muscle Mass (naturally aged mice) | Fat Mass (naturally aged mice) | Cataract incidence (naturally aged mice) | Lung p16 mRNA [2] | Col1a1 mRNA [2] | Liver p16 mRNA [3] | Col1a1 mRNA [3] | viability at 1.1 µM (senescent cells) | viability at 1.1 µM (senescent A549 cells) | further results
1 | COC(=O)[C@]12CCC(C)(C)C[C@H]1[C@H]1C(=O)C[C@@H]3[C@@]4(C)C=C(C#N)C(=O)C(C)(C)[C@@H]4CC[C@@]3(C)[C@]1(C)CC2 [LX-2301] | damage treatment and recovery | – | – | – | – | – | – | – | – | – | – | – | – | – | – | – | – | – | – | – | –
2 | CC1(C)CC[C@]2(C(=O)NCC(F)(F)F)CC[C@]3(C)[C@H](C(=O)C[C@@H]4[C@@]5(C)C=C(C#N)C(=O)C(C)(C)[C@@H]5CC[C@]43C)[C@@H]2C1 [LX-2302, Dihydro-CDDO-Trifluoroethyl Amide] | damage treatment and recovery | – | – | – | – | – | – | – | – | – | – | – | – | – | – | – | – | – | – | – | –
3 | CC1(C)CC[C@]2(NS(C)(=O)=O)CC[C@]3(C)[C@H](C(=O)C[C@@H]4[C@@]5(C)C=C(C#N)C(=O)C(C)(C)[C@@H]5CC[C@]43C)[C@@H]2C1 [LX-2306] | damage treatment and recovery | – | – | – | – | – | – | – | – | – | – | – | – | – | – | – | – | – | – | – | –
4 | COC(=O)C[C@]12CCC(C)(C)C[C@H]1[C@H]1C(=O)C[C@@H]3[C@@]4(C)C=C(C#N)C(=O)C(C)(C)[C@@H]4CC[C@@]3(C)[C@]1(C)CC2 [LX-2307] | damage treatment and recovery | – | – | – | – | – | – | – | – | – | – | – | – | – | – | – | – | – | – | – | –
5 | C[C@]12C=C(C#N)C(=O)C3(CC=CC3)C1=CC[C@@H]1[C@@H]2CC[C@]2(C)C(=O)CC[C@@H]12 [LX-2308] | damage treatment and recovery | – | – | – | – | – | – | – | – | – | – | – | – | – | – | – | – | – | – | – | –
6 | CC1(C)CC[C@]2(C(=O)NO)CC[C@]3(C)[C@H](C(=O)C[C@@H]4[C@@]5(C)C=C(C#N)C(=O)C(C)(C)[C@@H]5CC[C@]43C)[C@@H]2C1 [LX-2309] | damage treatment and recovery | – | – | – | – | – | – | – | – | – | – | – | – | – | – | – | – | – | – | – | –
7 | CONC(=O)[C@]12CCC(C)(C)C[C@H]1[C@H]1C(=O)C=C3[C@@]4(C)C=C(C#N)C(=O)C(C)(C)[C@@H]4CC[C@@]3(C)[C@]1(C)CC2 [LX-2310] | damage treatment and recovery | – | – | – | – | – | – | – | – | – | – | – | – | – | – | – | – | – | – | – | –
8 | C=C(C)[C@@H]1CC[C@]2(C(=O)NCC)CC[C@]3(C)[C@H](CCC4[C@@]5(C)C=C(C#N)C(=O)C(C)(C)[C@@H]5CC[C@]43C)[C@@H]12 (stereo partly shown) [LX-2311] | damage treatment and recovery | – | – | – | – | – | – | – | – | – | – | – | – | – | – | – | – | – | – | – | –
9 | C[C@@H]1C(=O)C(C#N)=C[C@]2(C)c3nn(C)c(-c4ccccc4)c3CC[C@@H]12 [LX-2312] | damage treatment and recovery | – | – | – | – | – | – | – | – | – | – | – | – | – | – | – | – | – | – | – | –
10 | COc1nc(-c2cccnc2)nc2c1CC[C@H]1[C@H](C)C(=O)C(C#N)=C[C@]21C [LX-2315] | damage treatment and recovery | – | – | – | – | – | – | – | – | – | – | – | – | – | – | – | – | – | – | – | –
11 | NC(=O)c1ncn([C@@H]2O[C@H](CO)[C@@H](O)[C@H]2O)n1 [LX-6537, Ribavirin] | – | 67% | 1.6 fold | 2.2 fold | 73% | 48% | 67% | 74% | 177% | 1.9 Fold | 1.4 fold | 0.68 g | 0.85 g | 72% | 64 (±3.2) % | 67 (±3.9) % | 77 (±5.7) % | 81 (±4.1) % | 90.9% | 102% | viability at 10 µM (senescent cells): 67.3%; viability at 30 µM (senescent cells): 12.2%; viability at 10 µM (senescent A549 cells): 66.8%; viability at 30 µM (senescent A549 cells): 2.4%
12 | C=C1CC[C@@H]2[C@](C)(CO)[C@H](O)CC[C@@]2(C)[C@@H]1C/C=C1/C(=O)OC[C@H]1O [LX-6800, Andrographolide] | – | 58% | 2.3 fold | 2.4 fold | 78% | 56% | 77% | 73% | 154% | 2.1 Fold | 2.0 fold | 0.70 g | 0.91 g | 75% | 78 (±3.8) % | 62 (±3.6) % | 80 (±4.9) % | 76 (±2.7) % | 81.6% | 80.9% | viability at 10 µM (senescent cells): 56.5%; viability at 30 µM (senescent cells): 2.2%; viability at 10 µM (senescent A549 cells): 70.9%; viability at 30 µM (senescent A549 cells): 43.8%; viability at 90 µM (senescent A549 cells): 17%
13 | C[S+]([O-])CCCCN=C=S (stereo not shown) [LX-7103, Sulforaphane] | – | 65% | 2.1 fold | 2.3 fold | 67% | 67% | 79% | 65% | 218% | 2.6 Fold | 2.6 fold | 0.67 g | 0.96 g | 69% | 65 (±2.1) % | 66 (±4.5) % | 70 (±2.2) % | 68 (±2.9) % | 84.3% | 102% | viability at 10 µM (senescent cells): 7.9%; viability at 10 µM (senescent A549 cells): 37.6%; viability at 30 µM (senescent A549 cells): 4.1%
14 | C[C@@H](Nc1nc(N[C@H](C)C(F)(F)F)nc(-c2cccc(Cl)n2)n1)C(F)(F)F [LX-8726, Vorasidenib] | – | 25% | 2.9 fold | 2.4 fold | 48% | 25% | 64% | 61% | 276% | 2.8 Fold | 2.7 fold | 0.81 g | 1.20 g | 43% | 42 (±2.9) % | 58 (±5.3) % | 36 (±4.3) % | 48 (±4.3) % | 52.3% | 71.7% | viability at 10 µM (senescent A549 cells): 17.5%
15 | Cn1cc(C[C@@H](N)C(=O)O)c2ccccc21 [LX-8801, Indoximod] | – | 35% | 2.9 fold | 1.7 fold | 72% | 33% | 63% | 54% | 205% | 2.1 Fold | 2.6 fold | 0.69 g | 0.94 g | 59% | 44 (±3.0) % | 67 (±4.5) % | 49 (±4.3) % | 53 (±3.5) % | 69.1% | 62.5% | viability at 10 µM (senescent cells): 1.2%; viability at 10 µM (senescent A549 cells): 8.4%
16 | C[C@@H](C(=O)Nc1ccc(Cl)cc1)[C@H]1CC[C@@H](c2ccnc3ccc(F)cc32)CC1 [LX-8805, Linrodostat] | – | 58% | 2.6 fold | 2.6 fold | 55% | 25% | 67% | 47% | 217% | 1.7 Fold | 1.9 fold | 0.72 g | 0.87 g | 68% | 40 (±2.1) % | 70 (±4.6) % | 60 (±3.9) % | 36 (±3.4) % | 99.1% | 103% | viability at 10 µM (senescent cells): 42.1%; viability at 30 µM (senescent cells): 21.8%; viability at 10 µM (senescent A549 cells): 58.3%; viability at 30 µM (senescent A549 cells): 32.8%
17 | Nc1ccc(/C=C/C(=O)NCc2cc3cc(-c4ccc(C(=O)N5CCC(F)(F)CC5)cc4)cc(-c4ccc(F)cc4)c3o2)cn1 [LX-8812, Padnarsertib] | – | 62% | 2.0 fold | 2.6 fold | 51% | 53% | 42% | 59% | 188% | 3.4 Fold | 2.9 fold | 0.70 g | 0.96 g | 54% | 67 (±5.6) % | 77 (±6.2) % | 63 (±3.9) % | 64 (±3.1) % | 94.6% | 100% | viability at 10 µM (senescent cells): 49.3%; viability at 30 µM (senescent cells): 29.2%; viability at 10 µM (senescent A549 cells): 61.6%; viability at 30 µM (senescent A549 cells): 24.9%
